Target: T1, Interleukin-5 (Mus musculus) (UniProt P04401)
T1 sequence (whole entry): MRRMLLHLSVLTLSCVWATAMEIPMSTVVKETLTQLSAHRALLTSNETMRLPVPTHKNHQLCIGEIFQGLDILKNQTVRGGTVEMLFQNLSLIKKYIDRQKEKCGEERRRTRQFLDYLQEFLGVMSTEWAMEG
Assay: Inhibition of mouse IL5-mediated mouse Y16 cell proliferation at 30 uM after 48 hrs by WST1 assay

In the case of `CC(=O)OCc1c(C2CCCCC2)oc2ccc(NC(=O)c3ccccc3)cc2c1=O`, the inhibition is reported as 95%.
In the case of `CC(=O)OCc1c(-c2ccccc2)oc2ccc(NC(=O)c3cnccn3)cc2c1=O`, the inhibition is reported as 15%.
`CC(=O)OCc1c(C2CCCCC2)oc2ccc(NS(=O)(=O)c3ccccc3)cc2c1=O` showed an inhibition of 5%.
In the case of `O=C(Nc1ccc2oc(C3CCCCC3)c(CO)c(=O)c2c1)C1CCCCC1`, the inhibition is reported as 9%.
`CC(=O)OCc1c(-c2ccccc2)oc2ccc(NC(=O)c3ccccc3)cc2c1=O` showed an inhibition of 79%.
`CC(C)(C)C(=O)OCc1c(C2CCCCC2)oc2ccc(NC(=O)c3ccccc3)cc2c1=O` was tested, and the inhibition was 5%.
For `O=C(Nc1ccc2oc(-c3ccc(F)cc3)c(CO)c(=O)c2c1)c1ccccc1`, the inhibition was 19%.
`O=C(Nc1ccc2oc(-c3ccccc3)c(CO)c(=O)c2c1)c1cnccn1` was tested, and the inhibition was 23%.
With `CC(=O)OCc1c(-c2ccc(F)cc2)oc2ccc(NC(=O)c3ccccc3)cc2c1=O` the inhibition was 12%.
`CC(C)C(=O)OCc1c(C2CCCCC2)oc2ccc(NC(=O)c3ccccc3)cc2c1=O` showed an inhibition of 71%.
With `O=C(Nc1ccc2oc(-c3ccccc3)c(CO)c(=O)c2c1)C1CCCCC1` the inhibition was 35%.
Compound `CC(=O)OCc1c(C2CCCCC2)oc2ccc(NCc3ccccc3)cc2c1=O` has an inhibition of 78%.
`O=C(Nc1ccc2oc(-c3ccccc3)c(CO)c(=O)c2c1)c1ccccc1` gave an inhibition of 71%.
Work on `CC(=O)OCc1c(-c2ccccc2)oc2ccc(NC(=O)C3CCCCC3)cc2c1=O` yielded an inhibition of 75%.
Compound `O=C(Nc1ccc2oc(C3CCCCC3)c(CO)c(=O)c2c1)c1ccccc1` has an inhibition of 90%.
In the case of `CC(=O)OCc1c(C2CCCCC2)oc2ccc(NC(=O)C3CCCCC3)cc2c1=O`, the inhibition is reported as 80%.
`CC(=O)OCc1c(C2CCCCC2)oc2ccc(NC(=O)Nc3ccccc3)cc2c1=O` showed an inhibition of 25%.
